For this assay, the target named is T1, CB1 receptor (Rattus norvegicus, UniProt P20272).
T1 construct: gene Cnr1
Briefly: Pink Flamindo cAMP assay in CB1-transfected HEK293 cells, antagonism of 2-AG; also reverses bath-applied 2-AG in autaptic neurons. The assay is classed as cell-based.

The structures appear in SMILES notation.

T1 sequence (P20272 whole entry): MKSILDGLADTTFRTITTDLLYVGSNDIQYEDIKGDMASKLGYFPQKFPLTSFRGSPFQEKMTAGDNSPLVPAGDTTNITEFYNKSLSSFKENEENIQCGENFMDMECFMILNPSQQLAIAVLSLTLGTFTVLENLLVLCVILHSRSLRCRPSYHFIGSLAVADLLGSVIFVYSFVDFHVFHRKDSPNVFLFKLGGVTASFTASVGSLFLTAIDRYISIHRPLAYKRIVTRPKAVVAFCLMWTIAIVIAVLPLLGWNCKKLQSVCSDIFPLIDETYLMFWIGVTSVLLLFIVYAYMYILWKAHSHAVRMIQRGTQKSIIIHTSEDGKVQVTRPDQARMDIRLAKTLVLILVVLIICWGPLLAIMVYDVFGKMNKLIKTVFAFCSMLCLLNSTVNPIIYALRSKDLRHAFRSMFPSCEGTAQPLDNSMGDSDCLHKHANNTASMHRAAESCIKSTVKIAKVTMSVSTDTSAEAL

By IC50 is commonly meant the concentration that gives 50% inhibition. `CCCc1cc(O)c2c(c1)OC(C)(C)[C@@H]1CCC(C)=C[C@@H]21` [THCV, Δ^9-tetrahydrocannabivarin] showed an IC50 of 7.3 nM.

The record behind these values is paper PMC8434068, “An Evaluation of Understudied Phytocannabinoids and Their Effects in Two Neuronal Models” (Molecules, 2021).
